From US20100184769A1, “PDE INHIBITORS FOR THE TREATMENT OF HEARING IMPAIRMENT” (BAYER SCHERING PHARMA AKTIENGESELLSCHAFT, priority 2007, published 2010)

Test system: acustic trauma and threshold levels of rats
Experiment: Acoustic trauma (AT) in rats, hearing thresholds by auditory brainstem responses (ABR)
Format: in vivo, female Sprague Dawley Rats
Conditions: 10 mg/kg p.o. twice daily
Protocol: All animal experiments were performed due to the “German Law for the Protection of Laboratory animals” and were conducted due to the approved guidelines for Animal Health and Welfare. Experiments were performed with female Sprague Dawley Rats with a body weight between 300-400 g. For induction of acoustic trauma (AT) animals were kept under anesthezia (Ketamine, Xylazin, Rompun i.p. injection) and exposed to band noise or pure tones using a calibrated loudspeaker inside a reverberating chamber. The sound consists of a continuous 10 kHz pure-tone presented at 115 dB SPL. All acoustic stimuli were calibrated at the head level of the animal. Rats were treated with either Vardenafil [10 mg/kg/ p.o. dissolved in Ethanol/Solutol/Water (10/40/50) with an application volume of 5 ml/kg] or Placebo [Ethanol/Solutol/Water (10/40/50) with an application volume of 5 ml/kg] twice daily. The first treatment with Vardenafil or Placebo was i.e. 1 h prior to AT. The development and progression/remission of hearing impairment was detected by measuring the hearing thresholds by recordings of auditory brainstem responses (ABR). The threshold was determined by the lowest sound pressure that produced ARBs distinct from noise level. Threshold level analysis was performed prior to the acustic trauma (AT) (Measurement A in table 1), 3-5 hours post AT (Measurement B in table 1), once daily, from day 1 to day 7 post AT (Measurement C to I in table 1) and finally 3 weeks post AT (Measurement J in table 1).

CCCc1nc(C)c2c(=O)[nH]c(-c3cc(S(=O)(=O)N4CCN(CC)CC4)ccc3OCC)nn12 [Vardenafil, 2-(2-Ethoxy-5-(4-ethylpiperazin-1-yl-1-sulfonyl)phenyl)-5-methyl-7-propyl-3H-imidazo (5,1-f) (1,2,4)triazin-4-one] was tested, and the “Hearing Threshold, Measurement B” value (3-5 hours post AT, first treatment 1 h prior to AT) was 38.6 dB SPL, the “Hearing Threshold, Measurement J” value (3 weeks post AT) was 8.1 dB SPL and the “Hearing Threshold, Measurement C” value (day 1 post AT) was 28.3 dB SPL. The “Hearing Threshold, Measurement D” value (day 2 post AT) was 19.5 dB SPL, the “Hearing Threshold, Measurement E” value (day 3 post AT) was 16.5 dB SPL and the “Hearing Threshold, Measurement F” value (day 4 post AT) was 14.3 dB SPL. For the same molecule, the “Hearing Threshold, Measurement G” value (day 5 post AT) was 12.4 dB SPL, the “Hearing Threshold, Measurement H” value (day 6 post AT) was 11.2 dB SPL and the “Hearing Threshold, Measurement I” value (day 7 post AT) was 10.9 dB SPL. For the same molecule, the “Hearing Threshold, Measurement A” value (prior to acustic trauma (AT)) was 5.9 dB SPL.
